Results taken from patent US20240124442A1, “TRICYCLIC-AMIDO-BICYCLIC PRMT5 INHIBITORS” (AMGEN INC., priority 2021, published 2024).

Tests used:
HCT116 WT cells = test: HCT116 WT (parent) cell line proliferation / cell viability (CellTiter-Glo, 6 days); assay type: cell-based; settings: Homo sapiens, HCT-116, 144 h, 6 days treatment
Summary of the method: (§1)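 Anti-proliferative IC50s were derived from CellTiter-Glo signal in HCT116 parent and MTAP-null cells after six days on compound. Serial dilutions reached top concentrations of 1, 10 or 50 μM, with DMSO-only wells as control.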

HCT116 MTAP null cells = test: HCT116 MTAP null cell line proliferation / cell viability (CellTiter-Glo, 6 days); assay type: cell-based; settings: 144 h; HCT116 MTAP null cells, 6 days treatment, CellTiter-Glo cell viability; read-out: HCT-116 MTAP null IC50
Summary of the method: as §1

Structure (SMILES) | IC50 (HCT116 WT cells) | IC50 (HCT116 MTAP null cells)
CCN(C(=O)c1cc2c3c(c(N)nc2cn1)COC3)[C@H]1COCc2cc(Br)ccc21 (single isomer, unassigned) [Example 588] | 10000 nM | 1980 nM
COC(=O)c1ccc2c(c1)OC[C@H]2N(C)C(=O)c1ccc2nc(N)c3cnn(C)c3c2c1 [Example 685, methyl (S)-3-(4-amino-N,1-dimethyl-1H-pyrazolo[4,3-c]quinoline-8-carboxamido)-2,3-dihydrobenzofuran-6-carboxylate] | 1520 nM | 22 nM
CN(C(=O)c1ccc2nc(N)c3cnn(C)c3c2c1)[C@@H]1COCc2c1ccc(F)c2F (single isomer, unassigned) [Example 409] | 3910 nM | 48 nM
Cc1n[nH]c2c1c(N)nc1cnc(C(=O)N(C)[C@@H]3COCc4nc(C(F)(F)F)ccc43)cc12 [Example 310, 4-amino-N,3-dimethyl-N-((5S)-2-(trifluoromethyl)-5,8-dihydro-6H-pyrano[3,4-b]pyridin-5-yl)-1H-pyrazolo-[4,3-c][1,7]naphthyridine-8-carboxamide] | 7380 nM | 110 nM
CN(C(=O)c1cc2c(cc1F)nc(N)c1cnn(C)c12)[C@H]1CCc2nc(C(F)(F)F)ccc21 (single isomer, unassigned) [Example 376] | 12800 nM | 882 nM
CN(C(=O)c1cc2c3c(c(N)nc2cn1)COC3)C1COc2cc(Br)cnc21 (racemic) [Example 458, 4-amino-N-((3R)-6-bromo-2,3-dihydrofuro[3,2-b]pyridin-3-yl)-N-methyl-1,3-dihydrofuro[3,4-c][1,7]naphthyridine-8-carboxamide and 4-amino-N-((3S)-6-bromo-2,3-dihydrofuro[3,2-b]pyridin-3-yl)-N-methyl-1,3-dihydrofuro[3,4-c][1,7]naphthyridine-8-carboxamide] | 38500 nM | 5050 nM
CN(C(=O)c1cc2c(cc1F)nc(N)c1c2cnn1C)[C@@H]1COCc2c1ccc(F)c2F (single isomer, unassigned) [Example 605] | 26400 nM | 285 nM
CN(C(=O)c1cc2c3c(c(N)nc2cc1F)COC3)[C@H]1COc2cc(S(C)(=O)=O)ccc21 (single isomer, unassigned) [Example 354] | 50000 nM | 3870 nM
CN(C(=O)c1cc2c(cc1F)nc(N)c1cnn(C)c12)[C@H]1COc2cc(C(F)(F)F)cc(F)c21 (single isomer, unassigned) [Example 381] | 11100 nM | 195 nM
[2H]C([2H])([2H])N(C(=O)c1ccc2nc(N)c3c(c2c1)COC3)[C@@H]1COc2cc(C(F)(F)F)ccc21 (single isomer, unassigned) [Example 322] | 1390 nM | 41 nM
CN(C(=O)c1cc2c(cc1F)nc(N)c1cnn(C)c12)[C@H]1COc2cc(S(C)(=O)=O)ccc21 (single isomer, unassigned) [Example 379] | 13500 nM | 490 nM
CN(C(=O)c1cc2c3c(c(N)nc2cc1Cl)COC3)[C@H]1COc2cc(C(F)(F)F)ncc21 (single isomer, unassigned) [Example 362] | 35600 nM | 744 nM
CN(C(=O)c1cc2c(cc1Cl)nc(N)c1cnn(C)c12)[C@@H]1COc2cc(-c3cnn(C(F)(F)F)c3)ccc21 [Example 249, 4-amino-7-chloro-N,1-dimethyl-N-((3S)-6-(1-(trifluoromethyl)-1H-pyrazol-4-yl)-2,3-dihydro-1-benzo-furan-3-yl)-1H-pyrazolo[4,3-c]quinoline-8-carboxamide] | 66 nM | 3 nM
CN(C(=O)c1cc2c(cc1F)nc(N)c1cnn(C)c12)C1CCOc2cc(C(F)(F)F)ccc21 (racemic) [Example 290, 4-amino-7-fluoro-N,1-dimethyl-N-((4R)-7-(trifluoromethyl)-3,4-dihydro-2H-chromen-4-yl)-1H-pyrazolo[4,3-c]quinoline-8-carboxamide and 4-amino-7-fluoro-N,1-dimethyl-N-((4S)-7-(trifluoromethyl)-3,4-dihydro-2H-chromen-4-yl)-1H-pyrazolo[4,3-c]quinoline-8-carboxamide] | 2460 nM | 61 nM
CN(C(=O)c1ccc2nc(N)c3c(c2c1)COC3)[C@H]1COc2cc(S(F)(F)(F)(F)F)ccc21 (single isomer, unassigned) [Example 328] | 10100 nM | 2160 nM
CN(C(=O)c1ccc2nc(N)c3cnn(C)c3c2c1)[C@@H]1COc2cc(C3=CCCCC3)ccc21 [Example 617, 4-amino-N-((3S)-6-(1-cyclohexen-1-yl)-2,3-dihydro-1-benzofuran-3-yl)-N,1-dimethyl-1H-pyrazolo[4,3-c]quinoline-8-carboxamide] | 1650 nM | 55 nM

Structure (SMILES) | IC50 (HCT116 WT cells) | IC50 (HCT116 MTAP null cells)
CN(C(=O)c1cc2c3c(c(N)nc2cn1)COC3)[C@@H]1COc2cc(C#N)ccc21 (single isomer, unassigned) [Example 541] | 3800 nM | 77 nM
CN(C(=O)c1ccc2nc(N)c3cnn(C)c3c2c1)[C@@H]1COCc2c(F)cncc21 (single isomer, unassigned) [Example 407] | 23300 nM | 554 nM
CN(C(=O)c1cc2c(cc1F)nc(N)c1c2cnn1C)[C@@H]1COc2cc(OC(F)(F)F)ccc21 [Example 259, 4-amino-7-fluoro-N,3-dimethyl-N-((3S)-6-(trifluoromethoxy)-2,3-dihydro-1-benzofuran-3-yl)-3H-pyrazolo[3,4-c]quinoline-8-carboxamide] | 3240 nM | 62 nM
CN(C(=O)c1cc2c3c(c(N)nc2cc1F)COC3)[C@@H]1CCc2nc(C(F)(F)F)ccc21 (single isomer, unassigned) [Example 349] | 2240 nM | 39 nM
Nc1nc2ccc(C(=O)N(CC3CC3)[C@H]3COc4cc(C(F)(F)F)ccc43)cc2c2c1COC2 (single isomer, unassigned) [Example 536] | 11700 nM | 728 nM
CN(C(=O)c1cc2c3c(c(N)nc2cn1)COC3)C1COc2cc(OC(F)F)ccc21 (racemic) [Example 453, 4-amino-N-((3R)-6-(difluoromethoxy)-2,3-dihydro-1-benzofuran-3-yl)-N-methyl-1,3-dihydrofuro[3,4-c][1,7]naphthyridine-8-carboxamide and 4-amino-N-((3S)-6-(difluoromethoxy)-2,3-dihydro-1-benzofuran-3-yl)-N-methyl-1,3-dihydrofuro[3,4-c][1,7]naphthyridine-8-carboxamide] | 13300 nM | 246 nM
C[C@H]1OCc2c1c(N)nc1cc(F)c(C(=O)N(C3CC3)[C@@H]3COc4cc(C(F)(F)F)ccc43)cc21 [Example 467, (3R)-4-amino-N-cyclopropyl-7-fluoro-3-methyl-N-((3S)-6-(trifluoromethyl)-2,3-dihydro-1-benzofuran-3-yl)-1,3-dihydrofuro[3,4-c]quinoline-8-carboxamide] | 418 nM | 10 nM
CN(C(=O)c1cc2c(cc1F)nc(N)c1c2cnn1C)[C@@H]1CCc2nc(C(F)(F)F)ccc21 (single isomer, unassigned) [Example 389] | 17200 nM | 185 nM
CN(C(=O)c1ccc2nc(N)c3cn[nH]c3c2c1)[C@@H]1COc2cc(C(F)(F)F)ccc21 [Example 261, 4-amino-N-methyl-N-((3S)-6-(trifluoromethyl)-2,3-dihydro-1-benzofuran-3-yl)-1H-pyrazolo[4,3-c]quinoline-8-carboxamide] | 703 nM | 15 nM
COc1ccc2c(n1)COC[C@H]2N(C)C(=O)c1ccc2nc(N)c3cnn(C)c3c2c1 [Example 283, 4-amino-N-((5S)-2-methoxy-5,8-dihydro-6H-pyrano[3,4-b]-pyridin-5-yl)-N,1-dimethyl-1H-pyrazolo[4,3-c]quinoline-8-carboxamide] | 1360 nM | 21 nM
CN(C(=O)c1ccc2nc(N)c3c(cnn3C)c2c1)[C@@H]1COCc2cc(C(F)(F)F)ccc21 [Example 510, 4-amino-N,3-dimethyl-N-((4S)-7-(trifluoromethyl)-3,4-dihydro-1H-2-benzopyran-4-yl)-3H-pyrazolo[3,4-c]quinoline-8-carboxamide] | 4590 nM | 48 nM
CN(C(=O)c1cc2c(cc1F)nc(N)c1c2cnn1C)[C@@H]1CCCc2nc(C(F)(F)F)ccc21 (single isomer, unassigned) [Example 439] | 9460 nM | 192 nM
Nc1nc2cc(Cl)c(C(=O)N(C3CC3)[C@@H]3COc4cc(C(F)(F)F)ccc43)cc2c2c1COC2 [Example 442, (S)-4-amino-7-chloro-N-cyclopropyl-N-(6-(trifluoromethyl)-2,3-dihydrobenzofuran-3-yl)-1,3-dihydrofuro[3,4-c]quinoline-8-carboxamide] | 200 nM | 9 nM
CN(C(=O)c1ccc2nc(N)c3cnn(C)c3c2c1)[C@H]1COCc2cc(-c3cnn(C(F)(F)F)c3)ccc21 (single isomer, unassigned) [Example 664] | 1770 nM | 319 nM
CC(C)N(C(=O)c1cc2c3c(c(N)nc2cc1F)[C@@H](C)OC3)[C@H]1COc2cc(C(F)(F)F)ccc21 [Example 469, (3R)-4-amino-7-fluoro-3-methyl-N-(2-propanyl)-N-((3R)-6-(trifluoromethyl)-2,3-dihydro-1-benzofuran-3-yl)-1,3-dihydrofuro[3,4-c]quinoline-8-carboxamide] | 19700 nM | 2730 nM
